Measured values taken from BigSolDB 2.1.

Cc1cc(=O)oc2cc(N)ccc12
solubility (mole fraction)
Conditions	278.15 K	283.15 K	288.15 K	293.15 K	298.15 K	303.15 K	308.15 K	313.15 K	318.15 K	323.15 K
in DMF	0.0579	0.0725	0.0902	0.108	0.131	0.156	0.189	0.219	0.251	0.292
in ethanol	0.000941	0.00101	0.00117	0.00123	0.00134	0.00161	0.00177	0.00214	0.00233	0.00262
in ethylene glycol	0.000384	0.000432	0.000531	0.000663	0.000812	0.000974	0.00112	0.0013	0.00145	0.00163
in isopropanol	0.00103	0.00114	0.00127	0.00152	0.00173	0.00188	0.00208	0.00237	0.00261	0.00294
in water	1.07e-05	1.38e-05	1.74e-05	2.18e-05	2.75e-05	3.41e-05	4.18e-05	5.14e-05	6.27e-05	7.57e-05
